Assay results: PMC7914897, “Cytotoxic Potential of a-Azepano- and 3-Amino-3,4-SeCo-Triterpenoids” (International Journal of Molecular Sciences, 2021)

How the values were obtained:
[1] = test system: NCI-H23 (NSC lung cancer); experiment: NCI-60 screen (SRB, 48 h); conditions: Homo sapiens
[2] = test system: CCRF-CEM (Leukemia); experiment: NCI-60 screen (SRB, 48 h); conditions: Homo sapiens
[3] = test system: U251 (CNS cancer); experiment: NCI-60 screen (SRB, 48 h); conditions: Homo sapiens
[4] = test system: SF-295 (CNS cancer); experiment: NCI-60 screen (SRB, 48 h); conditions: Homo sapiens
[5] = test system: HCT-15 (Colon cancer); experiment: NCI-60 screen (SRB, 48 h); conditions: Homo sapiens
[6] = test system: MOLT-4 (Leukemia); experiment: NCI-60 screen (SRB, 48 h); conditions: Homo sapiens
[7] = test system: IGROV1 (Ovarian cancer); experiment: NCI-60 screen (SRB, 48 h); conditions: Homo sapiens
[8] = test system: MDA-MB-468 (Breast cancer); experiment: cells; conditions: Homo sapiens
[9] = test system: HOP-92 (NSC lung cancer); experiment: NCI-60 screen (SRB, 48 h); conditions: Homo sapiens
[10] = test system: TK-10 (Renal cancer); experiment: NCI-60 screen (SRB, 48 h); conditions: Homo sapiens
[11] = test system: Leukemia subpanel; experiment: cells; conditions: Homo sapiens
[12] = test system: A549/ATCC (NSC lung cancer); experiment: NCI-60 screen (SRB, 48 h); conditions: Homo sapiens
[13] = test system: Colon Cancer subpanel; experiment: NCI-60 screen, subpanel; conditions: Homo sapiens
[14] = test system: NIH 3T3 (non-malignant mouse fibroblasts); experiment: SRB cytotoxicity assay, 72 h; type: cell-based; conditions: Mus musculus, NIH3T3; NIH 3T3, 72 h, cut-off 30 µM; read-out: EC50
Protocol: (§1) The cytotoxicity of compounds 1–20 was evaluated by means of a colorimetric sulforhodamine B (SRB) assay. For all compounds, the EC50 values were determined for the human tumor cell lines A375 (malignant melanoma), HT29 (colorectal carcinoma), MCF-7 (breast carcinoma), A2780 (ovarian carcinoma), FaDu (hypopharyngeal carcinoma), and NIH 3T3 (non-malignant mouse fibroblasts).
(§2) In short, exponentially growing cells were seeded into 96-well plates on day 0 at the appropriate cell densities to prevent confluence of the cells during the period of experiment. After 24 h, the cells were treated with serial dilutions of the compounds (0–30 µM) for 72 h. The final concentration of DMSO never exceeded 0.5%, which was non-toxic to the cells. After a 72 h treatment, the supernatant medium from the 96-well plates was discarded, and the cells were fixed with 10% TCA. For a thorough fixation, the plates were allowed to rest at 4 °C. After fixation, the cells were washed in a strip washer. The washing was done four times with water using alternate dispensing and aspiration procedures. The plates were then dyed with 100 µL of 0.4% SRB for about 20 min. After dying, the plates were washed with 1% acetic acid to remove the excess of the dye and allowed to air-dry overnight. Tris base solution (200 µL, 10 mM) was added to each well and absorbance was measured at λ = 570 nm (using a 96 well plate reader, Tecan Spectra, Crailsheim, Germany). The percentages of surviving cells relative to untreated controls were determined.

[15] = test system: OVCAR-5 (Ovarian cancer); experiment: NCI-60 screen (SRB, 48 h); conditions: Homo sapiens
[16] = test system: A375 (malignant melanoma); experiment: SRB cytotoxicity assay, 72 h; type: cell-based, human; conditions: Homo sapiens, A-375, 72 h, A375, 72 h, cut-off 30 µM; read-out: EC50
Protocol: as §1, §2

[17] = test system: FaDu (hypopharyngeal carcinoma); experiment: SRB cytotoxicity assay, 72 h; type: cell-based, human; conditions: Homo sapiens, cut-off 30 µM, read-out: EC50
Protocol: as §1, §2

[18] = test system: MCF-7 (breast carcinoma); experiment: SRB cytotoxicity assay, 72 h; type: cell-based, human; conditions: Homo sapiens, MCF7; MCF-7, 72 h, cut-off 30 µM; read-out: EC50
Protocol: as §1, §2

[19] = test system: HT29 (colorectal carcinoma); experiment: SRB cytotoxicity assay, 72 h; type: cell-based, human; conditions: Homo sapiens, HT-29; HT29, 72 h, cut-off 30 µM; read-out: EC50
Protocol: as §1, §2

[20] = test system: A2780 (ovarian carcinoma); experiment: SRB cytotoxicity assay, 72 h; type: cell-based, human; conditions: Homo sapiens; A2780, 72 h, cut-off 30 µM; read-out: EC50
Protocol: as §1, §2

[21] = test system: SNB-19 (CNS cancer); experiment: NCI-60 screen (SRB, 48 h); conditions: Homo sapiens
[22] = test system: CAKI-1 (Renal cancer); experiment: NCI-60 screen (SRB, 48 h); conditions: Homo sapiens
[23] = test system: HCT-116 (Colon cancer); experiment: NCI-60 screen (SRB, 48 h); conditions: Homo sapiens
[24] = test system: SN12C (Renal cancer); experiment: NCI-60 screen (SRB, 48 h); conditions: Homo sapiens
[25] = test system: MDA-MB-31/ATCC (Breast cancer); experiment: NCI-60 screen (SRB, 48 h); conditions: Homo sapiens

Cc1ccc(S(=O)(=O)OC[C@]23CCC(C)(C)C[C@H]2C2=CC[C@@H]4[C@@]5(C)CCCNC(C)(C)[C@@H]5CC[C@@]4(C)[C@]2(C)CC3)cc1 [Compound 15]
GI50 ([1]; NCI-H23): 1700 nM
IC (TGI) ([1]; NCI-H23, 48 h, read-out: TGI): 3270 nM
GI50 [2]: 1930 nM
CC50 ([2]; read-out: LC50): > 100000 nM
GI50 ([3]; U-251): 1740 nM
IC (TGI) ([3]; U-251, 48 h, read-out: TGI): 3290 nM
GI50 ([4]; SF-295): 1710 nM
IC (TGI) ([4]; SF-295, 48 h, read-out: TGI): 3300 nM
GI50 ([5]; HCT-15): 1650 nM
IC (TGI) ([5]; HCT-15, 48 h, read-out: TGI): 3200 nM
GI50 ([6]; MOLT-4): 1550 nM
CC50 ([6]; MOLT-4, read-out: LC50): > 100000 nM
GI50 ([7]; IGROV-1): 1410 nM
IC (TGI) ([7]; IGROV-1, 48 h, read-out: TGI): 3080 nM
GI50 ([8]; MDA-MB-468): 1560 nM
IC (TGI) ([8]; MDA-MB-468, 48 h, read-out: TGI): 3130 nM
GI50 ([9]; HOP-92): 1350 nM
IC (TGI) ([9]; HOP-92, 48 h, read-out: TGI): 2800 nM
GI50 ([10]; TK-10): 1770 nM
IC (TGI) ([10]; TK-10, 48 h, read-out: TGI): 3330 nM
CC50 ([10]; TK-10, read-out: LC50): 6270 nM
IC (TGI) ([11]; 48 h, read-out: TGI MG_MID): 4240 nM
GI50 ([11]; read-out: GI50 MG_MID): 1570 nM
CC50 ([11]; read-out: LC50 MG_MID): > 100000 nM
GI50 ([12]; A549): 1830 nM
IC (TGI) ([12]; A549, 48 h, read-out: TGI): 3660 nM
IC (TGI) ([13]; 48 h, read-out: TGI MG_MID): 3250 nM
GI50 ([13]; read-out: GI50 MG_MID): 1700 nM
EC50 [14]: 2760 ± 300 nM
GI50 ([15]; OVCAR-5): 1610 nM
IC (TGI) ([15]; OVCAR-5, 48 h, read-out: TGI): 3010 nM
EC50 [16]: 2360 ± 100 nM
EC50 [17]: 2020 ± 200 nM
EC50 [18]: 2400 ± 100 nM
EC50 [19]: 2330 ± 200 nM
EC50 [20]: 1480 ± 200 nM
GI50 ([21]; SNB-19): 1720 nM
IC (TGI) ([21]; SNB-19, 48 h, read-out: TGI): 3540 nM
GI50 ([22]; CAKI-1): 1450 nM
IC (TGI) ([22]; CAKI-1, 48 h, read-out: TGI): 2820 nM
CC50 ([22]; CAKI-1, read-out: LC50): 5460 nM
GI50 ([23]; HCT-116): 1800 nM
activity at 10 µM ([23]; HCT-116, 48 h, read-out: Growth % of the Most Sensitive Cell Lines): -83%
GI50 [24]: 1670 nM
IC (TGI) ([24]; 48 h, read-out: TGI): 3300 nM
GI50 [25]: 1910 nM
IC (TGI) ([25]; 48 h, read-out: TGI): 4120 nM
